This note sets out measurements from publication PMC7175117, “Biological Evaluation and Docking Studies of New Carbamate, Thiocarbamate, and Hydrazide Analogues of Acyl Homoserine Lactones as Vibrio fischeri-Quorum Sensing Modulators” (Biomolecules, 2020).

Each structure is given as a SMILES string. “Also recorded” adds a separate entry of the source.

In assay [1] the test system is Vibrio fischeri quorum sensing system. In words: Antagonistic activity: decrease of bioluminescence in competition with OHHL (200 nM) in recombinant E. coli NM522 with sensor plasmid pSB401. It counts as cell-based. The following applies: for IC50: increasing concentration of compound in competition with 200 nM OHHL; for residual bioluminescence: 100 µM of analogue in competition with 200 nM OHHL. The procedure: (§1) The recombinant Escherichia coli strain NM522 with the sensor plasmid pSB401 was used to measure the induction of luminescence. Bacterial cultures were grown in Luria broth (50 mL) at 30 °C. After 18 h, this bacterial culture was diluted 10 times to be used in the assay using 96-well plates (100 µL per well). For agonistic activity, compounds were tested at increasing concentrations in DMSO (max 2% in a total volume of 200 µL of LB). For antagonistic activity, compounds were tested in competition with OHHL (200 nM) at increasing concentrations in DMSO (max 2% in a total volume of 200 µL). This 200 nM concentration of OHHL is fully pertinent since concentrations as low as 10 or 50 nM are already valid protocols as reported in meaningful studies. Bioluminescence was measured with a Tecan spark luminometer (Männedorf, Switzerland).
(§2) All compounds were evaluated for the ability to induce bioluminescence (agonistic activity) or to decrease bioluminescence in the presence of 3-oxo-hexanoyl-L-homoserine lactone (OHHL) at 200 nM (antagonistic activity). Hydrazide AHL analogues were deprived of any activity.
A first assessment of the antagonistic activity was performed by measuring residual bioluminescence at 100 µM concentration of analogues in competition with 200 nM of OHHL. […] A residual bioluminescence of 42% for the L-butyl carbamate derivative 2 vs. 89% for the D-isomer 3 was measured showing the influence of the configuration on luminescence and therefore on QS inhibition.
To determine IC50 values, the decrease of bioluminescence of was measured using increasing concentration of each compound in presence of 200 nM of OHHL (Table 1). Values ranging from 22 to 94 µM, in the range of other reported of AHL-structurally related QS inhibitors, were measured for compounds 2, 4–7, and 9–11. Differences in the calculated LogP values are consistent with inhibitory activity for most compounds except 4-nitrobenzyl analogues. This is the case for all thiocarbamates vs. carbamates, and also when comparing the butyl (2) and hexyl (4) derivatives, or the benzyl and 4-bromobenzyl substituents.

Assay [2] has the same test system. In words: Agonistic activity: induction of bioluminescence in recombinant E. coli NM522 with sensor plasmid pSB401. It counts as cell-based. The method, then:
as §1, §2

For `O=C(N[C@H]1CCOC1=O)OCc1ccc(Br)cc1` [Compound 6, N-(4-bromobenzyloxycarbonyl)-L-homoserine lactone], in assay [1], the IC50 was found to be 64 µM.

`O=C(N[C@H]1CCOC1=O)OCc1ccccc1` [Compound 5, N-(benzyloxycarbonyl)-L-homoserine lactone]: the IC50 in assay [1] stood at 86 µM.

Turning to `CCCCCCOC(=O)N[C@H]1CCOC1=O` [Compound 4, N-(hexyloxycarbonyl)-L-homoserine lactone], in assay [1], the residual bioluminescence is recorded as 22% and the IC50 came to 73 µM.

Turning to `CCOC(=O)N[C@H]1CCOC1=O` [Compound 1, N-(ethoxycarbonyl)-L-homoserine lactone], the “bioluminescence induced, relative to that obtained with the natural ligand OHHL at 200 nM” value in assay [2] (compound at 200 µM, OHHL reference at 200 nM) is given as 18%. Moreover, in assay [2] (induction of bioluminescence, increasing concentrations), the agonistic activity result is “weak agonistic activity; also recorded: very weak agonistic activity”.

On to `CCCCOC(=O)N[C@@H]1CCOC1=O` [Compound 3, N-(butoxycarbonyl)-D-homoserine lactone], for which the residual bioluminescence in assay [1] is 89%.

Regarding `CCCCSC(=O)N[C@H]1CCOC1=O` [Compound 9, N-(butylthiocarbonyl)-L-homoserine lactone], the IC50 in assay [1] was determined as 45 µM.

Regarding `O=C(N[C@H]1CCOC1=O)SCc1ccccc1` [Compound 10, N-(benzylthiocarbonyl)-L-homoserine lactone], in assay [1], the IC50 was found to be 64 µM.

On to `CCCCOC(=O)N[C@H]1CCOC1=O` [Compound 2, N-(butoxycarbonyl)-L-homoserine lactone], for which, in assay [1], the residual bioluminescence is 42% and the IC50 turned out to be 94 µM.

One may read the IC50 as the concentration at which inhibition is half-maximal.
